Reference: US8211662B2, “Nitroreductase enzymatic substrates” (Biomerieux, priority 2007, dated 2012)

Tests used:
[1] = tested on: Salmonella typhimurium NCTC 74; assay: Nitroreductase detection on Columbia agar, colonies read under UV; assay type: cell-based; set-up: key to Intensity of fluorescence, Salmonella typhimurium NCTC 74 / F: fluorescence (intensity), Salmonella typhimurium NCTC 74 / Intensity of the fluorescence, Salmonella typhimurium NCTC 74: − = no fluorescence detected; +/− = weak fluorescence; + = medium fluorescence; ++ = strong fluorescence
Experimental: (§1) A mass of 40 mg of each substrate was dissolved in 4 ml of dimethylformamide (DMF). This solution was entirely taken up in 400 ml of Columbia agar autoclaved beforehand and kept molten at 50° C. The final concentration for each substrate was 100 mg/l.
(§2) Each of the media was distributed into Petri dishes 90 mm in diameter, in a proportion of 20 ml per dish.
(§3) 18 microorganism strains derived from collections and belonging to various species of bacteria and of yeasts were inoculated onto these media by semi-quantitative isolation of 10 μl of a suspension at 0.5 McFarland diluted to 1/20. The media were incubated for 24 hours at 37° C., then the colonies formed were examined visually under UV illumination at 360-365 nm.

[2] = tested on: Staph spp 12 strains; assay: Detection of various strains of S. aureus in the presence of substrates; assay type: cell-based
[3] = tested on: Morganella morganii 462403 (wild); assay: Nitroreductase detection on Columbia agar, colonies read under UV; assay type: cell-based; set-up: key to Intensity of fluorescence, Morganella morganii 462403 / F: fluorescence (intensity), Morganella morganii 462403 (wild) / Intensity of the fluorescence, Morganella morganii 462403 (wild): − = no fluorescence detected; +/− = weak fluorescence; + = medium fluorescence; ++ = strong fluorescence; settings: 100 mg/l in Columbia agar, 24 h 37° C., UV 360-365 nm
Experimental: as §1, §2, §3

[4] = tested on: Candida glabrata NCPF 3943; assay: as above; assay type: cell-based; set-up: key to Intensity of fluorescence, Candida glabrata NCPF3943 / F: fluorescence (intensity), Candida glabrata NCPF 3943 / Intensity of the fluorescence, Candida glabrata NCPF 3943: − = no fluorescence detected; +/− = weak fluorescence; + = medium fluorescence; ++ = strong fluorescence; settings: 100 mg/l in Columbia agar, 24 h 37° C., UV 360-365 nm
Experimental: as §1, §2, §3

[5] = tested on: MRSA NCTC 11939; assay: as above; assay type: cell-based, Staphylococcus aureus; set-up: key: − = no fluorescence detected; +/− = weak fluorescence; + = medium fluorescence; ++ = strong fluorescence; settings: 100 mg/l in Columbia agar, 24 h 37° C., UV 360-365 nm
Experimental: as §1, §2, §3

[6] = tested on: Staphylococcus epidermidis NCTC 11047; assay: as above; assay type: cell-based; set-up: key: − = no fluorescence detected; +/− = weak fluorescence; + = medium fluorescence; ++ = strong fluorescence; settings: 100 mg/l in Columbia agar, 24 h 37° C., UV 360-365 nm
Experimental: as §1, §2, §3

[7] = tested on: Serratia marcescens NCTC 10211; assay: as above; assay type: cell-based; set-up: key: − = no fluorescence detected; +/− = weak fluorescence; + = medium fluorescence; ++ = strong fluorescence; settings: 100 mg/l in Columbia agar, 24 h 37° C., UV 360-365 nm
Experimental: as §1, §2, §3

[8] = tested on: Candida albicans ATCC 90028; assay: as above; assay type: cell-based; set-up: key: − = no fluorescence detected; +/− = weak fluorescence; + = medium fluorescence; ++ = strong fluorescence; settings: 100 mg/l in Columbia agar, 24 h 37° C., UV 360-365 nm
Experimental: as §1, §2, §3

[9] = tested on: Enterococcus faecalis NCTC 775; assay: as above; assay type: cell-based; set-up: key: − = no fluorescence detected; +/− = weak fluorescence; + = medium fluorescence; ++ = strong fluorescence; settings: 100 mg/l in Columbia agar, 24 h 37° C., UV 360-365 nm
Experimental: as §1, §2, §3

[10] = tested on: Staphylococcus aureus NCTC 6571; assay: as above; assay type: cell-based; set-up: key: − = no fluorescence detected; +/− = weak fluorescence; + = medium fluorescence; ++ = strong fluorescence; settings: 100 mg/l in Columbia agar, 24 h 37° C., UV 360-365 nm
Experimental: as §1, §2, §3

[11] = tested on: Escherichia coli NCTC 10418; assay: as above; assay type: cell-based; set-up: key: − = no fluorescence detected; +/− = weak fluorescence; + = medium fluorescence; ++ = strong fluorescence; settings: 100 mg/l in Columbia agar, 24 h 37° C., UV 360-365 nm
Experimental: as §1, §2, §3

[12] = tested on: Providencia rettgeri NCTC 7475; assay: as above; assay type: cell-based; set-up: key: − = no fluorescence detected; +/− = weak fluorescence; + = medium fluorescence; ++ = strong fluorescence; settings: Table 4; 100 mg/l in Columbia agar, 24 h 37° C., UV 360-365 nm
Experimental: as §1, §2, §3

[13] = tested on: Listeria monocytogenes NCTC 11994; assay: as above; assay type: cell-based; set-up: key: − = no fluorescence detected; +/− = weak fluorescence; + = medium fluorescence; ++ = strong fluorescence; settings: 100 mg/l in Columbia agar, 24 h 37° C., UV 360-365 nm
Experimental: as §1, §2, §3

[14] = tested on: Citrobacter freundii 46262 (wild); assay: as above; assay type: cell-based; set-up: key: − = no fluorescence detected; +/− = weak fluorescence; + = medium fluorescence; ++ = strong fluorescence; settings: Table 4; 100 mg/l in Columbia agar, 24 h 37° C., UV 360-365 nm
Experimental: as §1, §2, §3

[15] = tested on: Enterococcus faecium NCTC 7171; assay: as above; assay type: cell-based; set-up: key: − = no fluorescence detected; +/− = weak fluorescence; + = medium fluorescence; ++ = strong fluorescence; settings: Table 4; 100 mg/l in Columbia agar, 24 h 37° C., UV 360-365 nm
Experimental: as §1, §2, §3

[16] = tested on: Enterobacter cloacae NCTC 11936; assay: as above; assay type: cell-based; set-up: key: − = no fluorescence detected; +/− = weak fluorescence; + = medium fluorescence; ++ = strong fluorescence; settings: 100 mg/l in Columbia agar, 24 h 37° C., UV 360-365 nm
Experimental: as §1, §2, §3

[17] = tested on: Bacillus subtilis NCTC 9372; assay: as above; assay type: cell-based; set-up: key: − = no fluorescence detected; +/− = weak fluorescence; + = medium fluorescence; ++ = strong fluorescence; settings: 100 mg/l in Columbia agar, 24 h 37° C., UV 360-365 nm
Experimental: as §1, §2, §3

[18] = tested on: Pseudomonas aeruginosa NCTC 10662; assay: as above; assay type: cell-based; set-up: key: − = no fluorescence detected; +/− = weak fluorescence; + = medium fluorescence; ++ = strong fluorescence; settings: 100 mg/l in Columbia agar, 24 h 37° C., UV 360-365 nm
Experimental: as §1, §2, §3

[19] = tested on: Streptococcus pyogenes NCTC 8306; assay: as above; assay type: cell-based; set-up: key: − = no fluorescence detected; +/− = weak fluorescence; + = medium fluorescence; ++ = strong fluorescence; settings: 100 mg/l in Columbia agar, 24 h 37° C., UV 360-365 nm
Experimental: as §1, §2, §3

[20] = tested on: Yersinia enterocolitica NCTC 11176; assay: as above; assay type: cell-based; set-up: key: − = no fluorescence detected; +/− = weak fluorescence; + = medium fluorescence; ++ = strong fluorescence; settings: 100 mg/l in Columbia agar, 24 h 37° C., UV 360-365 nm
Experimental: as §1, §2, §3

[21] = tested on: Acinetobacter baumanii ATCC 19606; assay: as above; assay type: cell-based; set-up: key to Intensity of fluorescence, Acinetobacter baumanii ATCC 19606 / Intensity of the fluorescence, Acinetobacter baumanii ATCC 19606: − = no fluorescence detected; +/− = weak fluorescence; + = medium fluorescence; ++ = strong fluorescence
Experimental: as §1, §2, §3

[22] = tested on: S. epidermidis 2 strains; assay: Detection of various strains of S. aureus in the presence of substrates; assay type: cell-based
Experimental: as §1, §2
18 microorganism strains derived from collections and belonging to various species of bacteria and of yeasts were inoculated onto these media by semi-quantitative isolation of 10 μl of a suspension at 0.5 McFarland diluted to 1/20. […]

[23] = tested on: Enterococcus 6 strains; assay: as above; assay type: cell-based
[24] = tested on: S. aureus (including MRSA) 10 strains; assay: as above; assay type: cell-based, Staphylococcus aureus; settings: for No. of strains detected, S. aureus (including MRSA): 10 strains
[25] = 100 mg/l in Columbia agar, 24 h 37° C., UV 360-365 nm
[26] = Table 4, 100 mg/l in Columbia agar, 24 h 37° C., UV 360-365 nm

Structure (SMILES): O=[N+]([O-])c1ccc(F)cc1-c1nc2ccccc2s1 [Substrate 15]
- Intensity of fluorescence, Salmonella typhimurium NCTC 74 [1, 25]: ++
- Intensity of the fluorescence, Salmonella typhimurium NCTC 74 [1, 26]: ++
- Salmonella typhimurium result with the substrate ([1]; table 2): strongly positive
- No. of strains detected, Staph spp ([2]; 24 h): 12
- No. of strains detected, Staph spp ([2]; 48 h): 12
- Intensity of fluorescence, Morganella morganii 462403 [3]: ++
- Intensity of the fluorescence, Morganella morganii 462403 (wild) ([3]; Table 4): ++
- Intensity of fluorescence, Candida glabrata NCPF3943 [4]: −
- Intensity of the fluorescence, Candida glabrata NCPF 3943 ([4]; Table 4): −
- Intensity of fluorescence, Staphylococcus aureus NCTC 11939 [5]: ++
- Intensity of the fluorescence, MRSA NCTC 11939 ([5]; Table 4): ++
- Intensity of fluorescence, Staphylococcus epidermidis NCTC 11047 [6]: −
- Intensity of the fluorescence, Staphylococcus epidermidis NCTC 11047 ([6]; Table 4): −
- Intensity of fluorescence, Serratia marcescens NCTC 10211 [7]: ++
- Intensity of the fluorescence, Serratia marcescens NCTC 10211 ([7]; Table 4): ++
- Intensity of fluorescence, Candida albicans ATCC 90028 [8]: −
- Intensity of the fluorescence, Candida albicans ATCC 90028 ([8]; Table 4): −
- Intensity of fluorescence, Enterococcus faecalis NCTC 775 [9]: −
- Intensity of the fluorescence, Enterococcus faecails NCTC 775 ([9]; Table 4): −
- Intensity of fluorescence, Staphylococcus aureus NCTC 6571 [10]: ++
- Intensity of the fluorescence, Staphylococcus aureus NCTC 6571 ([10]; Table 4): ++
- Intensity of fluorescence, Escherichia coli NCTC 10418 [11]: ++
- Intensity of the fluorescence, Escherichia coli NCTC 10418 ([11]; Table 4): ++
- Intensity of the fluorescence, Providencia rettgeri NCTC 7475 [12]: ++
- Intensity of fluorescence, Listeria monocytogenes NCTC 11994 [13]: −
- Intensity of the fluorescence, Listeria monocytogenes NCTC 11994 ([13]; Table 4): −
- Intensity of the fluorescence, Citrobacter freundii 46262 (wild) [14]: ++
- Intensity of the fluorescence, Enterococcus faecium NCTC 7171 [15]: −
- Intensity of fluorescence, Enterobacter cloacae NCTC 11936 [16]: ++
- Intensity of the fluorescence, Enterobacter cloacae NCTC 11936 ([16]; Table 4): ++
- Intensity of fluorescence, Bacillus subtilis NCTC 9372 [17]: −
- Intensity of the fluorescence, Bacillus subtilis NCTC 9372 ([17]; Table 4): −
- Intensity of fluorescence, Pseudomonas aeruginosa NCTC 10662 [18]: −
- Intensity of the fluorescence, Pseudomonas aeruginosa NCTC 10662 ([18]; Table 4): +
- Intensity of fluorescence, Streptococcus pyogenes NCTC 8306 [19]: −
- Intensity of the fluorescence, Streptococcus pyogenes NCTC 8306 ([19]; Table 4): −
- Intensity of fluorescence, Yersinia enterocolitica NCTC 11176 [20]: −
- Intensity of the fluorescence, Yersinia enterocolitica NCTC 11176 ([20]; Table 4): −
- Intensity of fluorescence, Acinetobacter baumanii ATCC 19606 [21, 25]: +
- Intensity of the fluorescence, Acinetobacter baumanii ATCC 19606 [21, 26]: +
- Distinguishing Pseudomonas aeruginosa from Acinetobacter baumanii ([21]; table 2): make it possible to distinguish Pseudomonas aeruginosa from Acinetobacter baumanii
- No. of strains detected, S. epidermidis ([22]; 24 h): 0
- No. of strains detected, S. epidermidis ([22]; 48 h): 2
- No. of strains detected, Enterococcus ([23]; 24 h): 0
- No. of strains detected, Enterococcus ([23]; 48 h): 1
- Distinguishing or identifying Staphylococcus aureus strains, in particular MRSA, from most of the other Gram-positive bacterial strains [24]: make it possible to distinguish or identify the Staphylococcus aureus strains
- No. of strains detected, S. aureus (including MRSA) ([24]; 24 h): 10
- No. of strains detected, S. aureus (including MRSA) ([24]; 48 h): 10
